# According to patent US20250249110A1, “ANTIMICROBIAL PEPTIDE DERIVATIVE AND USE THEREOF” (SICHUAN UNIVERSITY, priority 2016, published 2025):
# Where a SMILES comes first, the peptide text is derived from it. The star is where a group is joined. Succinyl(4-O-cholesteryl) = CC(C)CCC[C@@H](C)[C@H]1CC[C@H]2[C@@H]3CC=C4C[C@@H](OC(=O)CCC(=O)*)CC[C@]4(C)[C@H]3CC[C@]12C
# Columns and labels:
# [1] = Critical micelle concentration by pyrene fluorescence probe spectroscopy; format: physicochemical; conditions: aqueous solution
# Description: DP7-C can be self-assembled into micelles in aqueous solution. We detected the critical micelle concentration (CMC) of DP7-C by the pyrene fluorescence probe spectroscopy.
# The fluorescence emission spectrum of pyrene in aqueous solution has five fluorescence peaks, and the ratio of the first emission spectrum light intensity I1 to the third emission spectrum light intensity I3 in aqueous solution (the ratio of fluorescence intensity at 373 nm to that at 384 nm) is about 1.8. According to the literature, the surfactant may solubilize nonpolar organic compounds, and the surfactant at different concentrations may solubilize pyrene to varying degrees. Thus, the solubilizing ability of the solution will have an obvious mutation point after the concentration of surfactant exceeds the critical micelle concentration (CMC). […] Therefore, the CMC of […] in the solution can be determined by measuring the fluorescence spectra of pyrene in DP7-C solutions with different concentrations. […] Then, detect I1 and I3 by a fluorescence spectrophotometer. Add different volumes of sample mother liquor to BD tubes containing trace pyrene to reach the concentrations of 0.0001, 0.001, 0.01, 0.025, 0.05, 0.10, 0.125, 0.25, 0.5, 1.0 and 1.5 mg/ml respectively, and determine the fluorescence spectra of each solution. […]
# multiple strains = experiment: Antibacterial activity in vitro (MIC); format: cell-based
# NY-ESO-1+B16 tumor cells = experiment: NY-ESO-1 vaccine, preventive and therapeutic NY-ESO-1+ B16 tumor models; format: in vivo, mouse; conditions: both preventive and therapeutic model; NY-ESO-1 protein antigen
# Procedure: The specific steps are as follows: • (1) Vaccine preparation
# Incubate 20 μg of CpG and 40 μg of DP7-C at 37° C. for 15 min, add 5 μg of NY-ESO-1 protein, and replenish to a volume of 100 μl with sterile PBS. • (2) Grouping and dosage regimen
# In this study, animal experiments are divided into […]: NS, CpG, DP7-C and CpG/DP7-C, 10 mice for each group, and the dosage of each mouse is as follows: • (1) NS group: 100 μl of PBS; • (2) CpG group: 5 μg of NY-ESO-1 protein+20 μg of CpG; • (3) DP7-C group: 5 μg of NY-ESO-1 protein+40 μg of DP7-C; • (4) CpG/DP7-C group: 5 μg of NY-ESO-1 protein+20 μg of CpG+40 μg DP7-C;
# The total dosage of each mouse is 100 μl; if the dosage is less than 100 μl, sterile PBS may be added to reach 100 μl. • (3) Preventive immunity tumor model: perform subcutaneous immunotherapy at multiple sites on weeks 0, 2 and 4, and detect total antibody titers before inoculate tumor on week 5. Subcutaneously inoculate the tumor cells NY-ESO-1+B16: […] at the back of each mouse. After the tumor grows out, measure it at intervals of 3 days. Calculation formula of tumor volume: 0.52×length×width^2. Therapeutic immune tumor model: subcutaneously inoculate 2×10^5 of NY-ESO-1^+B16 tumor cells at the back of each mouse on day 0, and immunize on day 5 (once a week, for 3 consecutive times). Measure at intervals of 3 days and observe the survival time after the tumor grows out.
# [2] = Morphology under transmission electron microscopy; format: physicochemical; conditions: TEM
# Procedure: As the DP7 is positively charged, the DP7-C micelle formed by self-assembly is also positively charged in aqueous solution, showing its potential as a non-viral gene transmission vector, especially siRNA transmission vector. The morphology of DP7-C micelles formed by self-assembly and DP7-C/siRNA complexes is observed under a transmission electron microscopy (H-6009IV, Hitachi, Japan). First, 1 mg\mL of micellar solution is diluted with distilled water and coated on a copper mesh, covered with nitrocellulose, then negatively stained with phosphotungstic acid, dried at room temperature and observed under an electron microscope. […] Under the electron microscope, the particle size of DP7-C micelles is about 60 nm, and the particle size of DP7-C micelle/siRNA complex is about 100 nm (see FIGS. 14A and 14B for the results).
# B16 mouse melanoma cells = experiment: FAM-siRNA transfection efficiency in vitro, B16; format: cell-based; conditions: FAM-siRNA 1 μg, flow cytometry
# Procedure: In 24 h before transfection, the C26 mouse colon cancer cells or B16 mouse melanoma cells are laid in a 6-well plate with a density of 5×10^4 cells per well, and 2 ml of DMEM medium containing 20% FBS is added to each well. FAM-modified no-sense siRNA (FAM-siRNA) is used as a reporter gene to detect transfection efficiency, while PEI25K and Lipofectamin2000 are used as positive controls. During transfection, the medium is firstly replaced with 1 ml of serum-free DMEM medium. Subsequently, the gene transfection complexes mixed at different proportions are added to each well, and each complex contains 1 μg of FAM-siRNA. Among them, the ratio of siRNA/DP7-C, siRNA/PEI25K and siRNA/Lipofectamin2000 is 1:5, 1:2 and 1:2 respectively. After the medium is incubated at 37° C. for 4 h, it is replaced by DMEM medium supplemented with 20% FBS and sequentially incubated. After 24 h, the transfection is observed under a microscope and photographed. All cells in the wells including floating and adherent cells are collected, washed twice with precooled PBS, and the total fluorescence intensity of each group is counted by flow cytometer (EPICS Elite ESP, USA).
compound,measurement,setting,value
"CC[C@H](C)[C@H](NC(=O)[C@H](CCCNC(=N)N)NC(=O)[C@H](Cc1c[nH]c2ccccc12)NC(=O)[C@H](CCC(N)=O)NC(=O)[C@@H](NC(=O)CCC(=O)O[C@H]1CC[C@@]2(C)C(=CC[C@H]3[C@@H]4CC[C@H]([C@H](C)CCCC(C)C)[C@@]4(C)CC[C@@H]32)C1)C(C)C)C(=O)N[C@@H](CCCNC(=N)N)C(=O)N[C@H](C(=O)N[C@@H](C)C(=O)N[C@H](C(=O)N[C@H](C(=O)N[C@@H](CCCNC(=N)N)C(=O)N[C@@H](CCCCN)C(N)=O)[C@@H](C)CC)C(C)C)C(C)C [DP7-C, Chol-suc-VQWRIRVAVIRK-NH2] ({Succinyl(4-O-cholesteryl)}-VQWRIRVAVIRK-NH2)",critical micelle concentration (CMC),[1],3.47 µg/mL
same,MIC,multiple strains,> 1024 µg/mL
same,tumor growth,NY-ESO-1+B16 tumor cells,inhibit tumor growth to some extent
same,particle size under the electron microscope,[2],about 60 nm
same,transfection efficiency,B16 mouse melanoma cells,53.3 ± 4.0%
